Publication PMC7571155, “Design, Synthesis and Biological Investigation of Flavone Derivatives as Potential Multi-Receptor Atypical Antipsychotics” (Molecules, 2020)

Tests used:
5-HT2C receptor = target: T1, 5-HT2C receptor (Rattus norvegicus, UniProt P08909); assay: 5-HT2C receptor radioligand binding (3H-mesulergine); conditions: rat brain cortex, mean ± SEM of three experiments, read-out: Receptor Affinity Ki ± SEM 5-HT2C
T1 sequence (P08909 33-460): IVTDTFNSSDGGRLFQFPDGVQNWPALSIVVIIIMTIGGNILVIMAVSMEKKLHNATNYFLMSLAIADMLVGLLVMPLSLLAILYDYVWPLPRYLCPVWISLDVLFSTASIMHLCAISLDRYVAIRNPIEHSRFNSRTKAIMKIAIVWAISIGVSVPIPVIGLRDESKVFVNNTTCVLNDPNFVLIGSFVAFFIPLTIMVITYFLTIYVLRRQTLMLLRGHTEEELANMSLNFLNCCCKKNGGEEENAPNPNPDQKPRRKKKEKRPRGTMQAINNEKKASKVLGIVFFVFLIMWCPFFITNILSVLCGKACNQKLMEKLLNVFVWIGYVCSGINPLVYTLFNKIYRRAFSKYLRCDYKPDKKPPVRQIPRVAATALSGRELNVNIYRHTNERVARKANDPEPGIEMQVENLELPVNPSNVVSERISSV

α1 receptor = α1 receptor radioligand binding (3H-prazosin); conditions: rat cerebral cortex, mean ± SEM of three experiments, read-out: Receptor Affinity Ki ± SEM α1
H1 receptor = H1 receptor (Cavia porcellus, UniProt P31389); assay: H1 receptor radioligand binding (3H-mepyramine); conditions: guinea pig cerebellum, mean ± SEM of three experiments, read-out: Receptor Affinity Ki ± SEM H1
Sequence of H1 receptor (P31389 whole entry): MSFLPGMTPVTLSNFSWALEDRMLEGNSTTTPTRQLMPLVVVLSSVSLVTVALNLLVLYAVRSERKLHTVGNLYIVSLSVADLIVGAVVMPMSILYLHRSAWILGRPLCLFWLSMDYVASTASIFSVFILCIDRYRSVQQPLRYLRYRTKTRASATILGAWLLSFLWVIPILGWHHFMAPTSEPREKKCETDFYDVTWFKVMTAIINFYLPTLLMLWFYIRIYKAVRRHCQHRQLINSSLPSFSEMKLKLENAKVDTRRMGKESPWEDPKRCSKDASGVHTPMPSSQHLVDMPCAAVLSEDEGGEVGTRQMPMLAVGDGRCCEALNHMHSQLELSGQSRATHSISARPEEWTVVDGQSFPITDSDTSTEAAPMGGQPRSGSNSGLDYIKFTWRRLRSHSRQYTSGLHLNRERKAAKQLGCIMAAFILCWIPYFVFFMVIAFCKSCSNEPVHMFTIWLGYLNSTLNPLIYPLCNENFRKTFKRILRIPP

D2 receptor = D2 receptor (Rattus norvegicus, UniProt P61169); assay: D2 receptor radioligand binding (3H-spiperone); conditions: for Ki: Receptor Affinity Ki ± SEM D2, rat striatum, 3H-spiperone, mean ± SEM of three experiments; for potency ratio between D2 and 5-HT1A, 5-HT2A: ratio of Ki values
Sequence of D2 receptor (P61169 whole entry): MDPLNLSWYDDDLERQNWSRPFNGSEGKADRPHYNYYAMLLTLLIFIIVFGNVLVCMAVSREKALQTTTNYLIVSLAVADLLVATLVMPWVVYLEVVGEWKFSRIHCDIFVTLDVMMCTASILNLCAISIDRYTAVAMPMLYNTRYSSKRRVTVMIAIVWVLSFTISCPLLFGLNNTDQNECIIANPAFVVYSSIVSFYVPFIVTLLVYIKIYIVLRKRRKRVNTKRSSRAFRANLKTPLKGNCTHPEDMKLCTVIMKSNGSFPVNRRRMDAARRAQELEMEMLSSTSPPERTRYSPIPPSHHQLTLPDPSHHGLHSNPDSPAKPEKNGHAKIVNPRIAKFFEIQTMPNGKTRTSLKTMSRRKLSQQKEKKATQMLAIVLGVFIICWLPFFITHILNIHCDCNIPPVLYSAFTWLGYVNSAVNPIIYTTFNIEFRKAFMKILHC

D3 receptor [1] = target: D3 receptor (Rattus norvegicus, UniProt P19020); assay: D3 receptor radioligand binding (3H-7-OH-DPAT)
Sequence of D3 receptor (Rattus norvegicus, UniProt P19020) (P19020 whole entry): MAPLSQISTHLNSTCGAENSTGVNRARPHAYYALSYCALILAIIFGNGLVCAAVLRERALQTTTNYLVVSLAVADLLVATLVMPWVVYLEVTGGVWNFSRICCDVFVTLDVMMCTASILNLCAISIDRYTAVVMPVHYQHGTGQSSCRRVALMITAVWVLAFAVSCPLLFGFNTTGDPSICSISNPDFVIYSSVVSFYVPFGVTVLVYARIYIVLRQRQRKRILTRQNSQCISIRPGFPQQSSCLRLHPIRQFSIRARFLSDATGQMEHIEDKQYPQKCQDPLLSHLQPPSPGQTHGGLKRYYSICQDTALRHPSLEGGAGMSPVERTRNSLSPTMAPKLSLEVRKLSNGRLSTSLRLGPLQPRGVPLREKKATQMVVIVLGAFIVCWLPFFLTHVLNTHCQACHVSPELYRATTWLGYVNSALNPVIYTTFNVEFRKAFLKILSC

5-HT2A receptor [2] = target: 5-HT2A receptor (Rattus norvegicus, UniProt P14842); assay: 5-HT2A receptor radioligand binding (3H-ketanserin); conditions: Receptor Affinity Ki ± SEM 5-HT2A
Sequence of 5-HT2A receptor (Rattus norvegicus, UniProt P14842) (P14842 whole entry): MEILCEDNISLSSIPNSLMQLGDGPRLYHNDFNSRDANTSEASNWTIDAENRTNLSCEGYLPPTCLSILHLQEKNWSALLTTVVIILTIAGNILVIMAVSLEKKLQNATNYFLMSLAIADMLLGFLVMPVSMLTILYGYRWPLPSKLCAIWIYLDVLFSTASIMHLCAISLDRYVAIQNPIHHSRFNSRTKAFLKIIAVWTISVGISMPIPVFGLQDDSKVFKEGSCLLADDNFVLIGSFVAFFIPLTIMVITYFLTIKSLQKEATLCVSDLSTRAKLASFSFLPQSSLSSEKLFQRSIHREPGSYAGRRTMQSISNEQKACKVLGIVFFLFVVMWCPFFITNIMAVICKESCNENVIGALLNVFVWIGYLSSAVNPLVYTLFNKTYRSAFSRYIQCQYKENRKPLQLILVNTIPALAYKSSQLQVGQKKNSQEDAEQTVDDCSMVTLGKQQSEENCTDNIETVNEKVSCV

hERG potassium channels = hERG potassium channels (Homo sapiens, UniProt Q12809); assay: hERG potassium channel block, patch clamp in HEK cells
Sequence of hERG potassium channels (Q12809 whole entry): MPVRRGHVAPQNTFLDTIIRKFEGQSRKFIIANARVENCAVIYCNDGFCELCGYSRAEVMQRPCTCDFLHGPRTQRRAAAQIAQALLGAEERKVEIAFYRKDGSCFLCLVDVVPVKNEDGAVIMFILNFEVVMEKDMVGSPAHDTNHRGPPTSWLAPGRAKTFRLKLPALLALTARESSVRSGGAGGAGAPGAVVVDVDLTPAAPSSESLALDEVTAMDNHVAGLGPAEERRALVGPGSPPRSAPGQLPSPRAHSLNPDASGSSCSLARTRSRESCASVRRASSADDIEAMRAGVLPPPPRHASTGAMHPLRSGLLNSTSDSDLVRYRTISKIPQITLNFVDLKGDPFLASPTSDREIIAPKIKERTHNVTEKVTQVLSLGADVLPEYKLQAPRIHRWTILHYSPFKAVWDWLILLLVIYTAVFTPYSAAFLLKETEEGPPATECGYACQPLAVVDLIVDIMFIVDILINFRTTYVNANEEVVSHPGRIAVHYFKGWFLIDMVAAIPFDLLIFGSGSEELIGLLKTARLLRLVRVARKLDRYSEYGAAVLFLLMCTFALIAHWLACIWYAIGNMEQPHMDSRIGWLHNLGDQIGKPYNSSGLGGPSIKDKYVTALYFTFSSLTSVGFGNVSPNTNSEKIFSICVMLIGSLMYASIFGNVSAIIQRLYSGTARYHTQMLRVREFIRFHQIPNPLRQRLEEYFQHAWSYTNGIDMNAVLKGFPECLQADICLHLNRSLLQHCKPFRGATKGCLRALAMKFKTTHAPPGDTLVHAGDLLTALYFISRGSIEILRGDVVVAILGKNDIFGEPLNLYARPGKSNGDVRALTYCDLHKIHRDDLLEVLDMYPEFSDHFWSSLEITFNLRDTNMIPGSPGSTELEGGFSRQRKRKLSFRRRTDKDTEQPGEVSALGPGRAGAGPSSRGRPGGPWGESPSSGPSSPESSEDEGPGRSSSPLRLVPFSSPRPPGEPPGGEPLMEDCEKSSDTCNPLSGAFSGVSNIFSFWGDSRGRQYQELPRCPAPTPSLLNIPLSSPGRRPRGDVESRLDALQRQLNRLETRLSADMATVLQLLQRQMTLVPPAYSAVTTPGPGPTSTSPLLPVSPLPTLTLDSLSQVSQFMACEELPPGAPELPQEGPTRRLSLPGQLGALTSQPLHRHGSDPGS

D2L receptor = target: T2, D2L receptor (Homo sapiens, UniProt P14416); assay: Intrinsic activity, FLIPR calcium assay, HEK293/D2L; assay type: cell-based
T2 construct: expressed in transfected cells; host or cells: HEK293
T2 sequence (P14416 whole entry): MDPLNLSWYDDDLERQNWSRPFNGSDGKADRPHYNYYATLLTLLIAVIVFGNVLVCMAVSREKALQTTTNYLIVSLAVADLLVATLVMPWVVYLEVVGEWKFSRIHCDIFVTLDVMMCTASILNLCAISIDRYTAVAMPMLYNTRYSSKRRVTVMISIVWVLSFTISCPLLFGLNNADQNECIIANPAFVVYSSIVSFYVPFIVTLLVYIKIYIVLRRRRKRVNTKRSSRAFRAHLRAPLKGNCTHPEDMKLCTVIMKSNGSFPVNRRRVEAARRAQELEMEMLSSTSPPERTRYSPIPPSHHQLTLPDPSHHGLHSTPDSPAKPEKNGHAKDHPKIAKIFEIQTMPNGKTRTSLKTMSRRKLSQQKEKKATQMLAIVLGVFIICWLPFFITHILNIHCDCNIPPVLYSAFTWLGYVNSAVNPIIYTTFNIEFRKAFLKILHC

D3 receptor [3] = target: T3, D3 receptor (Homo sapiens, UniProt P35462); assay: Intrinsic activity, FLIPR calcium assay, HEK293/ACTOne D3; assay type: cell-based
T3 construct: expressed in transfected cells; host or cells: HEK293/ACTOne
T3 sequence (P35462 whole entry): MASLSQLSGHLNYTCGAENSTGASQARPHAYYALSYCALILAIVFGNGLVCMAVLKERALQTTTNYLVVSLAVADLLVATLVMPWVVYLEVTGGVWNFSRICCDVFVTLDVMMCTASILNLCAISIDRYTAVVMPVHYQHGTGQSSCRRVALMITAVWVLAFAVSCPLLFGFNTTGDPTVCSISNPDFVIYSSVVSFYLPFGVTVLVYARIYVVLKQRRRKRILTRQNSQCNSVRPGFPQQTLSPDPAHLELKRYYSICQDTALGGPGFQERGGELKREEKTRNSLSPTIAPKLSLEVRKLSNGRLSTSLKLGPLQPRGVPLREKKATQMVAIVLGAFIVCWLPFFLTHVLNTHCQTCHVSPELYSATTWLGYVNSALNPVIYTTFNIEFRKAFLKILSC

5-HT1A receptor = target: T4, 5-HT1A receptor (Homo sapiens, UniProt P08908); assay: Intrinsic activity, FLIPR calcium assay, HEK293/5-HT1A; assay type: cell-based; conditions: antagonist mode
T4 construct: expressed in transfected cells; host or cells: HEK293
T4 sequence (P08908 1-422): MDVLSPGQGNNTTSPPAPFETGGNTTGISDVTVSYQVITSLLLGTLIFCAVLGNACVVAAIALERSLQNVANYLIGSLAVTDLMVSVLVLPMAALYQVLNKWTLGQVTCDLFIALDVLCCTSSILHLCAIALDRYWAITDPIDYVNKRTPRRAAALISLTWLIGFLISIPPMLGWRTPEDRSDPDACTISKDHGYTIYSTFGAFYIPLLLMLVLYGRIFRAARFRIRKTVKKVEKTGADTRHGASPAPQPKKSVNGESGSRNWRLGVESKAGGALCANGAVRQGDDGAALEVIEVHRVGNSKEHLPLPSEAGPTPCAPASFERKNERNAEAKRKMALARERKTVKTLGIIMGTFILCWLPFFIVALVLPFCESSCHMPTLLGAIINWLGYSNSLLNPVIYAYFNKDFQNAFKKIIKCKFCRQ

5-HT2A receptor [4] = target: T5, 5-HT2A receptor (Homo sapiens, UniProt P28223); assay: Intrinsic activity, FLIPR calcium assay, HEK293/5-HT2A; assay type: cell-based; conditions: for inhibition at 10 µM: HEK293, read-out: Inhibition (10 μM, %), 5-HT2A, antagonist mode, 10 μM, n = 3
T5 construct: expressed in transfected cells; host or cells: HEK293
T5 sequence (P28223 whole entry): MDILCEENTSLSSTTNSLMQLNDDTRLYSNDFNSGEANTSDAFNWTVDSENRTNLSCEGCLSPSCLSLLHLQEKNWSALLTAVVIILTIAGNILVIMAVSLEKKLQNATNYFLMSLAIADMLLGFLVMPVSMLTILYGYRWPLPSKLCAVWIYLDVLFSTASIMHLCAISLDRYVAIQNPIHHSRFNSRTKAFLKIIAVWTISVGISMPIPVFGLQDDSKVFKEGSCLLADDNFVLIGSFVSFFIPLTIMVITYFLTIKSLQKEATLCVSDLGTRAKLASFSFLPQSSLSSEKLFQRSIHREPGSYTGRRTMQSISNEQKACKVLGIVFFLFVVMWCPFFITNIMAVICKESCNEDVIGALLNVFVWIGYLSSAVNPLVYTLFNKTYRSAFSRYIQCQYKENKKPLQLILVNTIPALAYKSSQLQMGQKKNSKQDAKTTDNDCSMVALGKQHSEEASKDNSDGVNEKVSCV

[5] = tested on: APO-induced climbing in mice; assay: Apomorphine-induced climbing; assay type: in vivo; conditions: Mus musculus, po, apomorphine 1.0 mg/kg sc
Method: Apomorphine-Induced Climbing [1-3].
Animals were placed in Plexiglas cages
for evaluating locomotor activity.
5.3 Catalepsy Test [1-3].
Catalepsy was evaluated on a metal
(§1) A mean immobility score of 30 s was used
(§2) as the criterion for the presence of catalepsy.

[6] = tested on: MK-801-induced hyperactivity in mice; assay: MK-801-induced hyperactivity; assay type: in vivo; conditions: Mus musculus, po, MK-801 0.3 mg/kg sc, read-out: MK-80: MK-801-induced hyperactivity ED50
Method: Apomorphine-Induced Climbing [1-3].
Animals were placed in Plexiglas cages
for evaluating locomotor activity.
5.3 Catalepsy Test [1-3].
Catalepsy was evaluated on a metal
as §1, §2

in vivo [7] = conditions: mouse, po
in vivo [8] = conditions: mouse
[9] = rat brain cortex, 3H-ketanserin, mean ± SEM of three experiments

SMILES	Ki (5-HT2C receptor)	Ki (α1 receptor)	Ki (H1 receptor)	melting point	Ki (D2 receptor)	potency ratio between D2 and 5-HT1A, 5-HT2A (D2 receptor)	Ki (D3 receptor [1])	Ki (5-HT2A receptor [2]; [9])	IC50 (hERG potassium channels)	inhibition at 10 µM (5-HT2A receptor [4])	ED50 [5]	ED50 [6]	ED50 (in vivo [7])	also measured
O=C1CC2(CCCCC2)Oc2cc(OCCCN3CCC(c4noc5cc(F)ccc45)CC3)ccc21 [Compound 9g, 7-(3-(4-(6-Fluorobenzo[d]isoxazol-3-yl)piperidin-1-yl)propoxy)spiro[chromane-2,1′-cyclohexan]-4-one]	401 ± 55.6 nM	138 ± 39.8 nM	909 ± 78.5 nM	96 to 98 °C	18.4 ± 1.8 nM	less than 5	35.2 ± 2.8 nM	9.1 ± 1.1 nM	3020 ± 291 nM	–	–	–	–	–
O=C1CC2(CCCCC2)Oc2cc(OCCCCN3CCC(c4noc5cc(F)ccc45)CC3)ccc21 [Compound 9h, 7-(4-(4-(6-Fluorobenzo[d]isoxazol-3-yl)piperidin-1-yl)butoxy)spiro[chromane-2,1′-cyclohexan]-4-one]	528 ± 68.5 nM	102 ± 50.6 nM	819 ± 91.8 nM	–	17 ± 2.3 nM	–	38.6 ± 3.7 nM	7.3 ± 0.4 nM	3980 ± 411 nM	–	–	–	–	–
O=C1CC2(CCCC2)Oc2cc(OCCCCN3CCC(c4noc5cc(F)ccc45)CC3)ccc21 [Compound 9d, 7-(4-(4-(6-Fluorobenzo[d]isoxazol-3-yl)piperidin-1-yl)butoxy)spiro[chromane-2,1′-cyclopentan]-4-one]	426 ± 47.8 nM	162 ± 57.1 nM	784 ± 98.3 nM	103 to 105 °C	15.7 ± 1.9 nM	less than 5	42.6 ± 5.3 nM	8.5 ± 0.7 nM	3380 ± 352 nM	–	–	–	–	–
CC1(C)CC(=O)c2ccc(OCCCCN3CCC(c4noc5cc(F)ccc45)CC3)cc2O1 [Compound 6j, 7-(4-(4-(6-Fluorobenzo[d]isoxazol-3-yl)piperidin-1-yl)butoxy)-2,2-dimethylchroman-4-one]	566 ± 75.4 nM	237 ± 86.4 nM	939 ± 101 nM	–	12.1 ± 1.5 nM	–	25.4 ± 3.1 nM	–	3770 ± 298 nM	> 90%	0.19 mg/kg	0.16 mg/kg	56.8 mg/kg	IC50 (D2L receptor): 8.9 nM; inhibition at 10 µM (D2L receptor; HEK293, read-out: Inhibition (10 μM, %), D2L, antagonist mode, 10 μM, n = 3): > 90%; IC50 (D3 receptor [3]): 31.5 nM; inhibition at 10 µM (D3 receptor [3]; HEK293, read-out: Inhibition (10 μM, %), D3, antagonist mode, 10 μM, n = 3): > 90%; IC50 (5-HT1A receptor; 5-HT1A): 201 nM; inhibition at 10 µM (5-HT1A receptor; HEK293, 5-HT1A, 10 μM, n = 3): > 90%; IC50 (5-HT2A receptor [4]): 195 nM; ED50 (in vivo [7]; Kun Ming (KM)): 58.4 mg/kg; LD50 at 24 h (in vivo [8]): > 2000 mg/kg; Ki (5-HT2A receptor [2]): 3.2 ± 0.4 nM
O=C(c1ccc(F)cc1)C1CCN(CCn2c(=O)[nH]c3ccccc3c2=O)CC1 [ketanserin, reference compound]	–	–	–	–	–	–	–	–	–	98.2 ± 2.6%	–	–	–	–
CN1CCN(C2=Nc3cc(Cl)ccc3Nc3ccccc32)CC1 [Clozapine, reference compound]	–	–	–	–	–	–	–	–	–	–	17.9 mg/kg	2.28 mg/kg	50 mg/kg	–
